Source: ChEMBL document CHEMBL3991601, “The target landscape of clinical kinase drugs” (Science, 2017)
The source made the active and inactive calls.

Columns and labels:
[1] = molecular target: T1, Serine/threonine-protein kinase NLK (Homo sapiens, UniProt Q9UBE8)
T1 sequence (Q9UBE8 whole entry): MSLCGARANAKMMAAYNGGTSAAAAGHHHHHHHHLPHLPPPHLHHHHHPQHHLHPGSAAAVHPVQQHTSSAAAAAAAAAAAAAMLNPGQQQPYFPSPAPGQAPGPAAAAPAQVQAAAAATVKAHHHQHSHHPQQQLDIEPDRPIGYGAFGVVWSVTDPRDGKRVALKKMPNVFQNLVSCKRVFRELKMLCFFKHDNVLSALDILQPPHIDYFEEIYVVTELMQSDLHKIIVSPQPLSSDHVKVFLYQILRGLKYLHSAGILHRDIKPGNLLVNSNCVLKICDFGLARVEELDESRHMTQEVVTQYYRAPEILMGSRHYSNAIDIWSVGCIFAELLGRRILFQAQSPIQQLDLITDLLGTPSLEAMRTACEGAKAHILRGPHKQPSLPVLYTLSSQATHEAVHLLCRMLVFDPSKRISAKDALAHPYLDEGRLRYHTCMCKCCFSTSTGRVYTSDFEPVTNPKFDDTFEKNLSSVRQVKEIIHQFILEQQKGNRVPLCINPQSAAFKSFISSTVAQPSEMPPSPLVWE

Heme oxygenase 2 = molecular target: T2, Heme oxygenase 2 (Homo sapiens, UniProt P30519)
T2 sequence (P30519 whole entry): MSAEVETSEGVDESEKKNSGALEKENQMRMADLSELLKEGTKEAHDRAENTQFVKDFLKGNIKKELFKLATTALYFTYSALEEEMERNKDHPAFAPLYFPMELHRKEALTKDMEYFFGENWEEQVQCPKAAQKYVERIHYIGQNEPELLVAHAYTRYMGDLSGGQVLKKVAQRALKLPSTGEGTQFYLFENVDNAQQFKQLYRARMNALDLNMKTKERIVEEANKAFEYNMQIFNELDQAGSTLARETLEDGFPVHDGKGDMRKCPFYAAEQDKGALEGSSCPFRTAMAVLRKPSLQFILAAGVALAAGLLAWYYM

[2] = molecular target: Guanine nucleotide-binding protein G(i) subunit alpha-2 (Homo sapiens, UniProt P04899)
[3] = molecular target: Serine/threonine-protein kinase MRCK alpha (Homo sapiens, UniProt Q5VT25)
[4] = molecular target: Protein kinase C beta type (Homo sapiens, UniProt P05771)
[5] = molecular target: Casein kinase II subunit alpha' (Homo sapiens, UniProt P19784)
Ephrin type-A receptor 5 = Ephrin type-A receptor 5 (Homo sapiens, UniProt P54756)
[6] = molecular target: Receptor-interacting serine/threonine-protein kinase 3 (Homo sapiens, UniProt Q9Y572)
[7] = molecular target: T3, AarF domain-containing protein kinase 1 (Homo sapiens, UniProt Q86TW2)
T3 sequence (Q86TW2 whole entry): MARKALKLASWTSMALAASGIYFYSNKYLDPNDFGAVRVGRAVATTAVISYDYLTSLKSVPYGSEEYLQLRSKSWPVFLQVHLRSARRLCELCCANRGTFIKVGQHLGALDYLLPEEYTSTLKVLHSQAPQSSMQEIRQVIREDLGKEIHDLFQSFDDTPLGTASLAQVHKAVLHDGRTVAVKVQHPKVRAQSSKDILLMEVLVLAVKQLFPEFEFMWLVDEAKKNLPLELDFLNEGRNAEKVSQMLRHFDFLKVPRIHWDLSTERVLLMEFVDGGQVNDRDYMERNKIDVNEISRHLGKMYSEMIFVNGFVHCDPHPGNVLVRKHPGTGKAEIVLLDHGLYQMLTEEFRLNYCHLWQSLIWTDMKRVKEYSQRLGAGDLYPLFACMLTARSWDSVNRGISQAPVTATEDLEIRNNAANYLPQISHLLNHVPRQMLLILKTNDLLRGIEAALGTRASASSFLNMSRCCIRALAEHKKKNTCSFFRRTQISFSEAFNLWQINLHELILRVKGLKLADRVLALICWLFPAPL

[8] = molecular target: T4, DNA replication licensing factor MCM4 (Homo sapiens, UniProt P33991)
T4 sequence (P33991 whole entry): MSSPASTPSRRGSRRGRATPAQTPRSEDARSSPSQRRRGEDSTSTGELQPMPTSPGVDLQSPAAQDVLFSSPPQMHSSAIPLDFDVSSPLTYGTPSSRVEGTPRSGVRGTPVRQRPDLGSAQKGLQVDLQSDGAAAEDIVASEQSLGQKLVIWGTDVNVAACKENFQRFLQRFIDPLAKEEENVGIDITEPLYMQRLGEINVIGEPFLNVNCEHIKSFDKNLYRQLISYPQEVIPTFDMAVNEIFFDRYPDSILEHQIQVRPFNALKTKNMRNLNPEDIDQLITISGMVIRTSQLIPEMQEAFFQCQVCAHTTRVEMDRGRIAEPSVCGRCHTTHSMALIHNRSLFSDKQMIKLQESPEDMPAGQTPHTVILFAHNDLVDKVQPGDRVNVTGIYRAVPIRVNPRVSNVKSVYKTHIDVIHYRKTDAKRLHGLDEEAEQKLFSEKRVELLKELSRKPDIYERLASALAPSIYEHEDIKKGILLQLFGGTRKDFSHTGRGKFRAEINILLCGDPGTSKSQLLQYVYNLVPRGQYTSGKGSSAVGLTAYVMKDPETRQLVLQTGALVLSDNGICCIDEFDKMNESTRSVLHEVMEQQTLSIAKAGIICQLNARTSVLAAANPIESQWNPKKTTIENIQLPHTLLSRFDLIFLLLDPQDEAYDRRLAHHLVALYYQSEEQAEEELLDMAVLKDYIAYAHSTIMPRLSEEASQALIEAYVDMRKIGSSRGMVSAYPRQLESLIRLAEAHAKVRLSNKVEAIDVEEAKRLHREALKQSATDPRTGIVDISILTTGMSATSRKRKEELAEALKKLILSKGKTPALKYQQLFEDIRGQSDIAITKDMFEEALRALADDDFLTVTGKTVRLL
Note: in the data inactive means no Kd found up to 30 µM.

Receptor-interacting serine/threonine-protein kinase 3, sequence (Q9Y572 whole entry, the tested form may be a part): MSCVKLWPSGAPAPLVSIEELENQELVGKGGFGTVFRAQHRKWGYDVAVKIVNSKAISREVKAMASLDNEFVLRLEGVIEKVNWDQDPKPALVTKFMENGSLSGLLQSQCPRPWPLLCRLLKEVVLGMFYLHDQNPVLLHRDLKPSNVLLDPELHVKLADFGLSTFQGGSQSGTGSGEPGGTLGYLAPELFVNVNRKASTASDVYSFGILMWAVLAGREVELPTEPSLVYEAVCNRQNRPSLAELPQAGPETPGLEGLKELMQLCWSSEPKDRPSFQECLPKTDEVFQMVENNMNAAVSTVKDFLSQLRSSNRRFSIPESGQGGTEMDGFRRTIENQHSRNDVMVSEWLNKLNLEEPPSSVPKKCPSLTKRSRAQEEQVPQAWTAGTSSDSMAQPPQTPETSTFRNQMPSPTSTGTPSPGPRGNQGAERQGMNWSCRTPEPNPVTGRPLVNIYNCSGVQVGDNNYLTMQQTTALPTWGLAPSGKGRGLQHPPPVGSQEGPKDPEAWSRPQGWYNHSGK
Casein kinase II subunit alpha', sequence (P19784 whole entry): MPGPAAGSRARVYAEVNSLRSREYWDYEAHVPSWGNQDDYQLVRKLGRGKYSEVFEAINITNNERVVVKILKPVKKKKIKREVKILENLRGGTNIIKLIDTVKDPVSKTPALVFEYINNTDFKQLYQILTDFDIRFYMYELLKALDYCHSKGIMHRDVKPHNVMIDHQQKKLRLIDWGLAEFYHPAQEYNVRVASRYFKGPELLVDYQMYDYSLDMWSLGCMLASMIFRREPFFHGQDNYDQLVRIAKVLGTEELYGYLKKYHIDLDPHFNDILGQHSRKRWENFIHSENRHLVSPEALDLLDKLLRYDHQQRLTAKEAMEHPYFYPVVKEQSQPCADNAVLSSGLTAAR
Guanine nucleotide-binding protein G(i) subunit alpha-2, sequence (P04899 whole entry): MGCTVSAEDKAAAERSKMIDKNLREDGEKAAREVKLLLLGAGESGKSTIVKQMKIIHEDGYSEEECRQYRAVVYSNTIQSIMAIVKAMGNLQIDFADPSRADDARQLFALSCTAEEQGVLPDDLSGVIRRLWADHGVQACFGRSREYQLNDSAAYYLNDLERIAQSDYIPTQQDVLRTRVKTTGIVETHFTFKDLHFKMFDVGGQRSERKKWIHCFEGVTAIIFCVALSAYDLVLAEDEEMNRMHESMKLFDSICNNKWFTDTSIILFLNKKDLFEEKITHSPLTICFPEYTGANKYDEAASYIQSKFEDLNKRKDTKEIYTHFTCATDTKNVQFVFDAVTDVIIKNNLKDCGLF
Serine/threonine-protein kinase MRCK alpha, sequence (Q5VT25 whole entry): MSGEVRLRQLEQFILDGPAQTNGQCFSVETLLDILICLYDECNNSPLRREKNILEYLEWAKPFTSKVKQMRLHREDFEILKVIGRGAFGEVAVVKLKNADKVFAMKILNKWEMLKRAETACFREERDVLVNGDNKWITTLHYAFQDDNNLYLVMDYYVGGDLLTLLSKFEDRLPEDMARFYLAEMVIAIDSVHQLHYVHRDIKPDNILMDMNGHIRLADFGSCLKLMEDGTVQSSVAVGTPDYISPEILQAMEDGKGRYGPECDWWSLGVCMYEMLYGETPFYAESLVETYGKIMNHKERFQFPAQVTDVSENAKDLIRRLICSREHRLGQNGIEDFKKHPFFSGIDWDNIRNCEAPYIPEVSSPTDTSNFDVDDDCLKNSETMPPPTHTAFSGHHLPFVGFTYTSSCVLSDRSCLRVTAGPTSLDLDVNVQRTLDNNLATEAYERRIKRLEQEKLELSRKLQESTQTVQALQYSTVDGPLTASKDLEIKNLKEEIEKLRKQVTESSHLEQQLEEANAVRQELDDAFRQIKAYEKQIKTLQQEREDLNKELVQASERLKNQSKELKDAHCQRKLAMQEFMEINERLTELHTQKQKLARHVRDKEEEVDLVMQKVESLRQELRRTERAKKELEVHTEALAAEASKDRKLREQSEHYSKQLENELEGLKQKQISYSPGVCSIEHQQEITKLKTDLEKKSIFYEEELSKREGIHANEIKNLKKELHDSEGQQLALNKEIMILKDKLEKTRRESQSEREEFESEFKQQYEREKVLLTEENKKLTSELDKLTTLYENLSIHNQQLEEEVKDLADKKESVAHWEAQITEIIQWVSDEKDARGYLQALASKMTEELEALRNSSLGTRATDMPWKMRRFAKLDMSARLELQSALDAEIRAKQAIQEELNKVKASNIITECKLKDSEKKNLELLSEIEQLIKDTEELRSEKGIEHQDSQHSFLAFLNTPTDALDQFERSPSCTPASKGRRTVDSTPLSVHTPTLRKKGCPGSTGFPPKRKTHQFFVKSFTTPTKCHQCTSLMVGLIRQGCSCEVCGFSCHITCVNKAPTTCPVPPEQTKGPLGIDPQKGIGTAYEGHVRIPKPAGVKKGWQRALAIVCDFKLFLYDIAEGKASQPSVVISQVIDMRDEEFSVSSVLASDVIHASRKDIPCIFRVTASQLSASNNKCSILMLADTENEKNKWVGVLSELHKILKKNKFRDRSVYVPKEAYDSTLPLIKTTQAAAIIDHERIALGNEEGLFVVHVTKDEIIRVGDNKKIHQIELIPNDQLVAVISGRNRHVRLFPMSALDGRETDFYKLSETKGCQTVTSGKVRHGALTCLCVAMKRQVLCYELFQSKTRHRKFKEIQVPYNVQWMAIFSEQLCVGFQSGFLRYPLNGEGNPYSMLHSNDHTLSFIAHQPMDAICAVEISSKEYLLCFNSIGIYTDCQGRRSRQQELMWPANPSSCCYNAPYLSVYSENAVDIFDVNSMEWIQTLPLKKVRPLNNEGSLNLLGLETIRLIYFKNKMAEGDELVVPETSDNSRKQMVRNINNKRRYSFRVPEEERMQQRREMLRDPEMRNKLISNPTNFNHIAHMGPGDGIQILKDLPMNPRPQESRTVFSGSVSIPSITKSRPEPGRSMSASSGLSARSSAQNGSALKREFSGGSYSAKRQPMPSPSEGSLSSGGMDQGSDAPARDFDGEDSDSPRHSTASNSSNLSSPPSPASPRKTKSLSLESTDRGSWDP
Ephrin type-A receptor 5, sequence (P54756 whole entry): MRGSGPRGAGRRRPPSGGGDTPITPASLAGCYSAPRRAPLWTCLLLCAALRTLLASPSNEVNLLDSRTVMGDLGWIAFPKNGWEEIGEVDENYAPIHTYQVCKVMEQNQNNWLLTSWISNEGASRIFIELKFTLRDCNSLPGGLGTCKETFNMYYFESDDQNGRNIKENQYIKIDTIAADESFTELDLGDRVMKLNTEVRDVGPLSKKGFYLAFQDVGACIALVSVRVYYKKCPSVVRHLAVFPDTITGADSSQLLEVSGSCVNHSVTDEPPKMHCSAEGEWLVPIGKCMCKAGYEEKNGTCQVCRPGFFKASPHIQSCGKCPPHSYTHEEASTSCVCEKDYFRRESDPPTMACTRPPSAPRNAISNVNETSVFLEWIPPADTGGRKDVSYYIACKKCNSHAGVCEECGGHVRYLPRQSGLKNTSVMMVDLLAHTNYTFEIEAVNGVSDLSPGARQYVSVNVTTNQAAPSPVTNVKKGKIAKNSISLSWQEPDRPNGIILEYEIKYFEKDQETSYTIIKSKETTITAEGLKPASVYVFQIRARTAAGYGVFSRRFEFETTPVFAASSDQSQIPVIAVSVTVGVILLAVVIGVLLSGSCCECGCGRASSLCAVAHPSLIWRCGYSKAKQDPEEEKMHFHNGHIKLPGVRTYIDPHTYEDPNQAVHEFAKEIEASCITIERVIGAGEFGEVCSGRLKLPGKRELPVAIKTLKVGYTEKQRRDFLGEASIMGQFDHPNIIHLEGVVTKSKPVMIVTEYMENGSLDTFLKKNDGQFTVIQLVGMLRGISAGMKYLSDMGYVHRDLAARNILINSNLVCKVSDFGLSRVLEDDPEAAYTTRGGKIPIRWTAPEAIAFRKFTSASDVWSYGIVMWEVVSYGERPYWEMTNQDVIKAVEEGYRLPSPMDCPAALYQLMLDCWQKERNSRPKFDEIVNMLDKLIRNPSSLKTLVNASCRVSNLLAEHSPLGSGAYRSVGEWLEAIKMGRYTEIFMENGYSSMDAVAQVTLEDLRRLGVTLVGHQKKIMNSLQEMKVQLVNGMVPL
Protein kinase C beta type, sequence (P05771 whole entry): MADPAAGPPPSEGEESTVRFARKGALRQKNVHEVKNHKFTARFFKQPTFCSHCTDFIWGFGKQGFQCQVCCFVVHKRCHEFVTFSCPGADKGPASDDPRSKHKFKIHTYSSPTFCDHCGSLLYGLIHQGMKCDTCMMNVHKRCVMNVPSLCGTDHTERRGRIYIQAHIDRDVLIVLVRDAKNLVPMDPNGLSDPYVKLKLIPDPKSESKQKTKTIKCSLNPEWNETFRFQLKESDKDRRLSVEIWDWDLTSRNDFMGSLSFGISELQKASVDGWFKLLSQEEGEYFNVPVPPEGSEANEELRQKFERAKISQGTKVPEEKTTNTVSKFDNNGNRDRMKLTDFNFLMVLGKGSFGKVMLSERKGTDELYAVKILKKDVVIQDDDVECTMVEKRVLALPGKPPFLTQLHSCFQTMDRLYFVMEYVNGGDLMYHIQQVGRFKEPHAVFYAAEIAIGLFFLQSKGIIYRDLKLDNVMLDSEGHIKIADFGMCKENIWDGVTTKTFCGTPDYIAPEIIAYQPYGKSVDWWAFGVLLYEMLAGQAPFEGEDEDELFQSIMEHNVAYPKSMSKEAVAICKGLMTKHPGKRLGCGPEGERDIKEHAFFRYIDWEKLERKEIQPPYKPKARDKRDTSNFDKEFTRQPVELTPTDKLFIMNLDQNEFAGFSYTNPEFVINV

Row | Kd [1] | Kd (Heme oxygenase 2) | Kd [2] | Kd [3] | Kd [4] | Kd [5] | Kd (Ephrin type-A receptor 5) | Kd [6] | Kd [7] | Kd [8] | Compound
1 | > 30 µM (inactive) | > 30 µM (inactive) | > 30 µM (inactive) | > 30 µM (inactive) | > 30 µM (inactive) | > 30 µM (inactive) | > 30 µM (inactive) | > 30 µM (inactive) | > 30 µM (inactive) | > 30 µM (inactive) | Cc1cc(-c2cc(OC(=O)c3ccccc3)ccc2Cl)cc2nnc(Nc3ccc(OCCN4CCCC4)cc3)nc12 [TG100-801]
2 | > 30 µM (inactive) | > 30 µM (inactive) | > 30 µM (inactive) | > 30 µM (inactive) | > 30 µM (inactive) | > 30 µM (inactive) | > 30 µM (inactive) | > 30 µM (inactive) | > 30 µM (inactive) | > 30 µM (inactive) | FC(F)(F)c1ccc(CNc2ccc(Cc3c[nH]c4ncc(Cl)cc34)cn2)cn1 [PEXIDARTINIB]
3 | > 30 µM (inactive) | > 30 µM (inactive) | > 30 µM (inactive) | > 30 µM (inactive) | > 30 µM (inactive) | > 30 µM (inactive) | > 30 µM (inactive) | > 30 µM (inactive) | > 30 µM (inactive) | > 30 µM (inactive) | Cc1cc(C(=O)Nc2cc(Oc3ccc4nc(NC(=O)C5CC5)cn4n3)ccc2C)n(C)n1 [TAK-593]
4 | > 30 µM (inactive) | > 30 µM (inactive) | > 30 µM (inactive) | > 30 µM (inactive) | > 30 µM (inactive) | > 30 µM (inactive) | > 30 µM (inactive) | > 30 µM (inactive) | > 30 µM (inactive) | > 30 µM (inactive) | C=CC(=O)Nc1cccc(Nc2nc(Nc3ccc(N4CCN(C(C)=O)CC4)cc3OC)ncc2C(F)(F)F)c1 [ROCILETINIB]
5 | 3.33 µM | > 30 µM (inactive) | > 30 µM (inactive) | > 30 µM (inactive) | > 30 µM (inactive) | 1.6 µM (active) | > 30 µM (inactive) | > 30 µM (inactive) | > 30 µM (inactive) | > 30 µM (inactive) | COc1cccc2cc(-c3nc([C@H]4CC[C@H](C(=O)O)CC4)n4ncnc(N)c34)[nH]c12 [OSI-027]

Second part, the compound before the results:

Row | Compound | Kd [1] | Kd (Heme oxygenase 2) | Kd [2] | Kd [3] | Kd [4] | Kd [5] | Kd (Ephrin type-A receptor 5) | Kd [6] | Kd [7] | Kd [8]
6 | C=CCn1c(=O)c2cnc(Nc3ccc(N4CCN(C)CC4)cc3)nc2n1-c1cccc(C(C)(C)O)n1 [ADAVOSERTIB] | > 30 µM (inactive) | > 30 µM (inactive) | > 30 µM (inactive) | > 30 µM (inactive) | > 30 µM (inactive) | 0.412 µM (active) | > 30 µM (inactive) | > 30 µM (inactive) | 1.9 µM (active) | > 30 µM (inactive)
7 | CCc1nc(C(N)=O)c(Nc2ccc(N3CCC(N4CCN(C)CC4)CC3)c(OC)c2)nc1NC1CCOCC1 [GILTERITINIB] | > 30 µM (inactive) | > 30 µM (inactive) | > 30 µM (inactive) | > 30 µM (inactive) | > 30 µM (inactive) | 0.96 µM (active) | > 30 µM (inactive) | 1.3 µM (active) | 0.152 µM (active) | > 30 µM (inactive)
8 | CCN1CCN(Cc2ccc(Nc3ncc(F)c(-c4cc(F)c5nc(C)n(C(C)C)c5c4)n3)nc2)CC1 [ABEMACICLIB] | > 30 µM (inactive) | > 30 µM (inactive) | > 30 µM (inactive) | > 30 µM (inactive) | 1.62 µM (active) | 0.019 µM (active) | > 30 µM (inactive) | > 30 µM (inactive) | 0.04 µM (active) | > 30 µM (inactive)
9 | O=c1[nH]c([C@@H]2CCCN2)nc2c1oc1ccc(Cl)cc12 | > 30 µM (inactive) | > 30 µM (inactive) | > 30 µM (inactive) | > 30 µM (inactive) | > 30 µM (inactive) | 0.022 µM (active) | > 30 µM (inactive) | > 30 µM (inactive) | > 30 µM (inactive) | > 30 µM (inactive)
10 | O=S(=O)(c1cccc2c(O)nccc12)N1CCCNCC1 [HYDROXYFASUDIL] | > 30 µM (inactive) | > 30 µM (inactive) | > 30 µM (inactive) | > 30 µM (inactive) | > 30 µM (inactive) | > 30 µM (inactive) | > 30 µM (inactive) | > 30 µM (inactive) | > 30 µM (inactive) | > 30 µM (inactive)
11 | COCCN1CCN(Cc2ccc(-c3n[nH]c4c3C(=O)c3c(NC(=O)NN5CCOCC5)cccc3-4)cc2)CC1 [RGB-286638] | > 30 µM (inactive) | > 30 µM (inactive) | > 30 µM (inactive) | 1.09 µM (active) | > 30 µM (inactive) | 0.008 µM (active) | > 30 µM (inactive) | > 30 µM (inactive) | > 30 µM (inactive) | > 30 µM (inactive)
12 | CCc1cc2c(cc1N1CCC(N3CCOCC3)CC1)C(C)(C)c1[nH]c3cc(C#N)ccc3c1C2=O [ALECTINIB] | > 30 µM (inactive) | > 30 µM (inactive) | > 30 µM (inactive) | > 30 µM (inactive) | > 30 µM (inactive) | > 30 µM (inactive) | > 30 µM (inactive) | > 30 µM (inactive) | > 30 µM (inactive) | > 30 µM (inactive)
13 | COc1cc(Nc2ncc(F)c(Nc3ccc4c(n3)N(COP(=O)(O)O)C(=O)C(C)(C)O4)n2)cc(OC)c1OC [FOSTAMATINIB] | > 30 µM (inactive) | > 30 µM (inactive) | > 30 µM (inactive) | > 30 µM (inactive) | > 30 µM (inactive) | > 30 µM (inactive) | > 30 µM (inactive) | > 30 µM (inactive) | 1.07 µM (active) | > 30 µM (inactive)
14 | c1cc(OCCN2CCCCC2)cc(-c2n[nH]c3ccc(-c4nc[nH]n4)cc23)c1 [CC-401] | > 30 µM (inactive) | > 30 µM (inactive) | > 30 µM (inactive) | > 30 µM (inactive) | > 30 µM (inactive) | 0.584 µM (active) | > 30 µM (inactive) | > 30 µM (inactive) | > 30 µM (inactive) | > 30 µM (inactive)
15 | CCOc1ccn(-c2ccc(F)cc2)c(=O)c1C(=O)Nc1ccc(Oc2ccnc(N)c2Cl)c(F)c1 [BMS-777607] | > 30 µM (inactive) | > 30 µM (inactive) | > 30 µM (inactive) | > 30 µM (inactive) | > 30 µM (inactive) | > 30 µM (inactive) | > 30 µM (inactive) | > 30 µM (inactive) | > 30 µM (inactive) | > 30 µM (inactive)
